# Several values for one entry are separate records, joined by “and”; a condition that tells them apart may be missing. Identical values can stand only once.
# Assays:
# C8166 cells [1] = type: cell-based; conditions: C8166, three days, MTT; one value per date of experiment
# C8166 cells [2] = type: cell-based
# Procedure: 50□1 medium was added into half of the holes on the culture plate and 50□1 diluted supernatant fluid of HIV-1, in which the value of M.O.I was 0.0089, was added into the other half of the holes on the culture plate. At the same time, the blank control holes without the drug (the negative control) were set and the control culture holes with positive drug AZT (the positive control) were set too. They were put into 5%CO2 incubator under 37 °C for three days. The survival rate of cells was determined by MTT method. OD values (595 nm/630 nm) were determined by ELx800ELISA Reader. The following formulae were used to calculate the survival rate of normal cells caused by the drug and the protective rate of the drug for HIV-1-infected cells. Survival rate of normal cells (%) =OD value of the experimental hole/OD value of negative control hole □ 100%
# HIV-1 [3] = conditions: C8166 + HIV-1, M.O.I 0.0089, three days; one value per date of experiment
# Procedure: 50□1 diluted supernatant fluid of HIV-1 was added to the mixture and the value of M.O.I was 0.0089. At the same time, the control hole without the drug and the control hole with positive drug AZT were set. They were put into 5%CO2 incubator under 37? for three days. The amount of syncytium was counted under an inverted microscope (100×□) (in five visual fields). IC50, that is, the concentration of the drugs inhibiting 50% syncytium formation, was determined.
# HIV-1 [4] = conditions: HIV-1-infected C8166, three days, MTT
# Procedure: 50□1 medium was added into half of the holes on the culture plate and 50□1 diluted supernatant fluid of HIV-1, in which the value of M.O.I was 0.0089, was added into the other half of the holes on the culture plate. At the same time, the blank control holes without the drug (the negative control) were set and the control culture holes with positive drug AZT (the positive control) were set too. They were put into 5%CO2 incubator under 37 °C for three days. The survival rate of cells was determined by MTT method. OD values (595 nm/630 nm) were determined by ELx800ELISA Reader. […] Survival rate of normal cells (%) =OD value of the experimental hole/OD value of negative control hole □ 100%
# Protective rate of infected cells (%)=(OD value of the experimental hole—OD value of positive control hole)/(OD value of negative control hole—OD value of positive control hole) □ 100%
# [5] = Clinical trial in type 2 diabetes patients; type: in vivo, human; conditions: 52 cases per group
# From the text: According to diagnostic criteria of diabetes by WHO(1985), 104 diabetes patients were diagnosed to have type 2 diabetes. Wherein, 56 patients were male and 48 patients were female at average age of […]. All of them had diabetes for […] years. They were divided into two groups at random:
# Group A: treatment group administrated the granules of example 1
# Group B: control group administrated Micronase (produced by Shandong Boshan Pharmaceutical Factory, Batch: 990917)
# Control group: Micronase was orally taken at 30 minutes before meal in three times per day and 2.5 mg(tablet) each time.
Structure (SMILES),TC50 (concentration causing the death of 50% the cells) (C8166 cells [1]) [µg/mL],TC50 obtained by protective experiment (toxic effects on normal cells) (C8166 cells [2]) [µg/mL],IC50 inhibiting syncytium formation (head prints TC50) (HIV-1 [3]),IC50 (EC50 of protective effects on infected cells) (HIV-1 [4]) [µg/mL],"blood sugar at 2 hours after meal, mean before therapy ([5]; baseline)","fasting blood sugar, mean before therapy ([5]; baseline)","blood sugar at 2 hours after meal, mean after therapy ([5]; therapy for 3 months)","fasting blood sugar, mean after therapy ([5]; therapy for 3 months)"
Cc1cn([C@H]2C[C@H](N=[N+]=[N-])[C@@H](CO)O2)c(=O)[nH]c1=O [AZT],>50,>50,0.23 µg/mL and 0.18 µg/mL,0.15,–,–,–,–
COc1ccc(Cl)cc1C(=O)NCCc1ccc(S(=O)(=O)NC(=O)NC2CCCCC2)cc1 [Micronase],–,–,–,–,14.67 ± 1.49,9.53 ± 1.46,12.14 ± 2.53,6.53 ± 1.53

# Reference: US20070248619A1, “New pharmaceutical composition from natural materials for regulating immunity, its preparation method and use” (priority 2006, published 2007)
